Data from a melting point compilation (Tetko et al.).
Residues, ends and D or L forms follow the SMILES beside them. *: point of attachment. Cyclohexanecarbonyl = O=C(C1CCCCC1)*; Boc = CC(C)(C)OC(=O)*; Bn = c1ccc(C*)cc1

SMILES | melting point
CC(=O)OCC(CNC(=O)c1c(I)c(NC(=O)C2CCCO2)c(I)c(C(=O)NCC(COC(C)=O)OC(C)=O)c1I)OC(C)=O (configuration not stated) | 101 to 104 °C
CC(C)c1oncc1S(=O)(=O)c1ccc(O)cc1 | 129 to 131 °C
COC(=O)C(C)NC(=O)C(Cc1ccc(OCc2ccccc2)cc1)NC(=O)C(COCc1ccccc1)NC(=O)C(Cc1c[nH]c2ccccc12)NC(=O)C1CCCCC1 (configuration not stated) (Cyclohexanecarbonyl-WS(Bn)Y(Bn)A-OMe; configuration not given here) | 181 to 183 °C
CCN(C(=O)NC)C1C(Cl)=C(OC2=C(Cl)C(N(CC)C(=O)NC)C(c3ccccc3C(F)(F)F)([N+](=O)[O-])C=C2)C=CC1(c1ccccc1C(F)(F)F)[N+](=O)[O-] (configuration not stated) | 128 °C
CC(C)(C)OC(=O)N(CNCCNC(=O)CCOCC(COCCC(=O)NCCNCN(C(=O)OC(C)(C)C)C(=O)OC(C)(C)C)(COCCC(=O)NCCNCN(C(=O)OC(C)(C)C)C(=O)OC(C)(C)C)NC(=O)OCc1ccccc1)C(=O)OC(C)(C)C | 86 to 88 °C
Cc1cc(C)c2cccc(OCc3c(Cl)ccc(S(=O)(=O)N4CCC[C@H]4C(=O)NC4CCN(C(=O)CCN(C=NC(=O)OC(C)(C)C)NC(=O)OC(C)(C)C)CC4)c3Cl)c2n1 | 115 to 117 °C
CS(=O)(=O)c1ccc(-c2cc3c(cc2C(=O)c2cc4c(cc2-c2ccc(S(C)(=O)=O)cc2)OC(c2cc(F)cc(F)c2)CO4)OCC(c2cc(F)cc(F)c2)O3)cc1 (configuration not stated) | 191 to 193 °C
Brc1c(Br)c(Br)c(Oc2nc(Oc3c(Br)c(Br)c(Br)c(Br)c3Br)nc(Oc3c(Br)c(Br)c(Br)c(Br)c3Br)n2)c(Br)c1Br | 320 to 325 °C
COc1ccccc1C(=C/C=C/C(=O)O)c1ccccc1OC | 196 to 197 °C
COc1ccc(C(CCCC(C(=O)C(CCCC(c2ccc(OC)c(OC)c2)N2C(=O)c3ccccc3C2=O)N2C(=O)c3ccccc3C2=O)N2C(=O)c3ccccc3C2=O)N2C(=O)c3ccccc3C2=O)cc1OC (configuration not stated) | 195 °C
CCC(COC(=O)CCc1cc(C(C)(C)C)c(O)c(C(C)(C)C)c1)(COC(=O)CCc1cc(C(C)(C)C)c(O)c(C(C)(C)C)c1)COC(=O)CCc1cc(C(C)(C)C)c(O)c(C(C)(C)C)c1 | 66 to 79 °C
COc1cc(OC)c(/C=C/C(c2ccc(OC)c(NC(C)C(=O)O)c2)S(=O)(=O)C(/C=C/c2c(OC)cc(OC)cc2OC)c2ccc(OC)c(NC(C)C(=O)O)c2)c(OC)c1 (configuration not stated) | 176 to 180 °C
COC(=O)c1ccc([C@H](C)NC(=O)CN2CCN(CC(=O)N[C@@H](C)c3ccccc3)CCN(Cc3ccn(-c4ccc5c(=O)c6cc(C(C)(C)C)ccc6oc5n4)n3)CCN(CC(=O)N[C@@H](C)c3ccccc3)CC2)cc1 | 187 to 189 °C
CN(C)c1ccccn1 | 0 °C
CC(=O)c1cc2cc(Br)ccc2oc1=O | 227 °C
CCCCCCCCCCCCCCCCCCCCCC(=O)OCCN(CCOC(=O)CCCCCCCCCCCCCCCCCCCCC)CC(=O)O | 73 to 75 °C
COC(=O)C(C)(C)NC(=O)Nc1ccc(Cl)cc1 | 135 to 136 °C
O=C1C(COCc2ccccc2)N(Cc2ccccc2)CCN(Cc2ccccc2)C(COCc2ccccc2)C(=O)N(Cc2ccccc2)CCN1Cc1ccccc1 (configuration not stated) | 86 to 87 °C
CCc1nc(OC)c(NC(=O)N2CCN(c3cc(C)cc(C)c3)CC2)cc1C(=O)NC(C)C(=O)Nc1cc(CO)cc(Nc2c3ccccc3nc3c(OC)cccc23)c1 (configuration not stated) | 178 to 179 °C

SMILES | melting point
CC(=O)OCC(CNC(=O)c1c(I)c(C(=O)NCC(COC(C)=O)OC(C)=O)c(I)c(N2CCCC2=O)c1I)OC(C)=O (configuration not stated) | 130 to 133 °C
CC(C)CCCC(C)C1CCC2C3CC=C4CC(N(CCCNC(=O)CCNC(=O)CCNC(=O)CCCCCNc5ccc([N+](=O)[O-])cc5[N+](=O)[O-])S(=O)(=O)c5ccccc5[N+](=O)[O-])CCC4(C)C3CCC12C (configuration not stated) | 106 to 108 °C
CCc1nc(C)c(C(=O)OCOC(=O)C(C)(C)C)n1Cc1ccc2oc(-c3ccccc3-c3nnn(C(c4ccccc4)(c4ccccc4)c4ccccc4)n3)c(Br)c2c1 | 51 to 53 °C
CCCCCCCCCCCCc1ccsc1-c1ccc2c(c1)=C(C(C#N)C#N)c1cc3c(cc1=2)C(C(C#N)C#N)=c1cc(-c2sccc2CCCCCCCCCCCC)ccc1=3 | 232 to 233 °C
Cc1ccc(S(=O)(=O)N2CCOCCN(S(=O)(=O)c3ccc(C)cc3)CCN(S(=O)(=O)c3ccc(C)cc3)CCN(S(=O)(=O)c3ccc(C)cc3)CC2)cc1 | 198 to 201 °C
C=CCOC1OC(CO)C(O)C(OC(=O)CC(CCCCCCCCCCC)OCc2ccccc2)C1NC(=O)CC(CCCCCCCCCCC)OCc1ccccc1 (configuration not stated) | 80 to 82 °C
CCCCCCCCCS(=O)(=O)c1cc2c3cc(S(=O)(=O)CCCCCCCCC)c(S(=O)(=O)CCCCCCCCC)cc3c3cc(S(=O)(=O)CCCCCCCCC)c(S(=O)(=O)CCCCCCCCC)cc3c2cc1S(=O)(=O)CCCCCCCCC | 202 °C
O=P(O)(C(F)(F)C(F)(F)C(F)(F)C(F)(F)C(F)(F)C(F)(F)C(F)(C(F)(F)F)C(F)(F)F)C(F)(F)C(F)(F)C(F)(F)C(F)(F)C(F)(F)C(F)(F)C(F)(C(F)(F)F)C(F)(F)F | 170 to 172 °C
CC(C)(C)c1cc(CCC(=O)OCC(COCC(COC(=O)CCc2cc(C(C)(C)C)c(O)c(C(C)(C)C)c2)OC(=O)CCc2cc(C(C)(C)C)c(O)c(C(C)(C)C)c2)OC(=O)CCc2cc(C(C)(C)C)c(O)c(C(C)(C)C)c2)cc(C(C)(C)C)c1O (configuration not stated) | 57 °C
CC(C)COc1c(-c2ccc(S(N)(=O)=O)c(F)c2)cnn(-c2cccc(Cl)c2)c1=O | 157 to 159 °C
CC(C#N)N1CCC(c2noc3cc(F)ccc23)CC1 (configuration not stated) | 133 to 134 °C
C=CCN1C(C)(C)CC(N(CCCC)c2nc(N(CCCC)C3CC(C)(C)N(CC=C)C(C)(C)C3)nc(N(CCCC)C3CC(C)(C)N(CC=C)C(C)(C)C3)n2)CC1(C)C | 161 to 163 °C
O=S(=O)(C(/C=C/c1ccc(Br)cc1)c1ccc(I)cc1)C(/C=C/c1ccc(Br)cc1)c1ccc(I)cc1 (configuration not stated) | 217 to 219 °C
COc1cc(C(=O)Oc2ccc3c(OC(=O)c4ccc(OCc5ccccc5)c(OC)c4)c4cc(OC(=O)c5ccc(OCc6ccccc6)c(OC)c5)ccc4cc3c2)ccc1OCc1ccccc1 | 186 to 189 °C
O=C(Oc1c(I)cc(I)c(Br)c1I)C(F)(F)C(F)(Br)C(F)(F)Br (configuration not stated) | 56 to 57 °C
COc1cc(C(=O)c2c(C)c(C(=O)OCc3ccccc3)c3cc(N(C)C)ccn23)ccc1[N+](=O)[O-] | 167 °C
Cc1c(SCCN2CCOCC2)ccnc1CSc1nc2ccccc2n1CC(=O)N(C)C | 178 to 180 °C
CCCCCCCCCCC1(CCCCCCCCCC)c2cc(-c3ccc4c(c3)C(CC)(CC)c3cc(-c5nc6ccccc6s5)ccc3-4)ccc2-c2ccc(-c3ccc4c(c3)C(CC)(CC)c3cc(N(c5ccccc5)c5ccccc5)ccc3-4)cc21 | 228 to 229 °C
COC1C(=O)C2(C)C(OC)CC3OCC3(OC(C)=O)C2C(OC(=O)c2ccccc2)C2(O)CC(OC(=O)C(O)C(NC(=O)OC(C)(C)C)c3ccccc3)C(C)=C1C2(C)C (configuration not stated) | 125 to 145 °C

SMILES | melting point
CCCCCCCC/C=C\CCCCCCCCN | 15 to 22 °C
CS(=N)(=O)c1ccc(-n2cnnn2)cc1 (configuration not stated) | 180 to 181 °C
Cc1cc(-n2ccnc2)c2cccc(OCc3c(Cl)ccc(S(=O)(=O)N4CCCC4C(=O)NCC4CCN(C(=O)CCCC(=O)OC(C)(C)C)CC4)c3Cl)c2n1 (configuration not stated) | 112 °C
CCCCCCCCCCOc1c(-c2nc3ccccc3s2)sc(-c2sc(-c3nc4ccccc4s3)c(OCCCCCCCCCC)c2OCCCCCCCCCC)c1OCCCCCCCCCC | 93.9 to 95 °C
CC(C)(C)CC(C)(C)c1cc(-n2nc3ccc(-c4ccc(-c5ccc6nn(-c7cc(C(C)(C)CC(C)(C)C)cc(C(C)(C)c8ccccc8)c7O)nc6c5)cc4)cc3n2)c(O)c(C(C)(C)c2ccccc2)c1 | 247 to 249 °C
CC(C)CC1C(=O)OC(Cc2ccc(OCc3ccco3)cc2)C(=O)N(C)C(CC(C)C)C(=O)OC(C)CN(C)C(CC(C)C)C(=O)OC(Cc2ccc(OCc3ccco3)cc2)C(=O)N(C)C(CC(C)C)C(=O)OC(C)CN1C (configuration not stated) | 116 to 119 °C
COC(=O)c1cc(C(C)(C)C)c(OP2OP(Oc3c(C(C)(C)C)cc(C(=O)OC)cc3C(C)(C)C)OP(Oc3c(C(C)(C)C)cc(C(=O)OC)cc3C(C)(C)C)O2)c(C(C)(C)C)c1 (configuration not stated) | 185 to 200 °C
[C-]#[N+]Cc1nc(-c2ccccc2)c(-c2ccccc2)o1 | 95 to 96 °C
CN=S(=O)(Cc1ccc(C(F)(F)F)nc1)c1nc(-c2ccc(OC)cc2)cs1 (configuration not stated) | 158 to 161 °C
COC(=O)C(C)NC(=O)C(COCc1ccccc1)NC(=O)C(Cc1ccc(OCc2ccccc2)cc1)NC(=O)C(Cc1c[nH]c2ccccc12)NC(=O)OC(C)(C)C (configuration not stated) (Boc-WY(Bn)S(Bn)A-OMe; configuration not given here) | 178 to 182 °C
CCCCC(CC)CN1C(=O)C(=c2[nH]c(=c3[nH]c(=C4C(=O)N(CC(CC)CCCC)C(=O)N(CC(CC)CCCC)C4=O)c4ccccc34)c3ccccc23)C(=O)N(CC(CC)CCCC)C1=O (configuration not stated) | 198 to 206 °C
CCOC(=O)C(C)OC1C(Cl)=C(OC2=C(Cl)C(OC(C)C(=O)OCC)C(c3ccccc3C(F)(F)F)([N+](=O)[O-])C=C2)C=CC1(c1ccccc1C(F)(F)F)[N+](=O)[O-] (configuration not stated) | 71 to 74 °C
COC(=O)COC1C(NC(C)=O)C(OCc2ccccc2)OC(COCc2ccccc2)C1OC1OC(COCc2ccccc2)C(OCc2ccccc2)C(OCc2ccccc2)C1NC(C)=O (configuration not stated) | 221 to 223 °C
NCC1Cc2cc(F)cc(-c3ccoc3)c2O1 (configuration not stated) | 236 to 239 °C
Cc1ccc(C(c2ccc(C)c(C(OS(C)(=O)=O)(C(F)(F)F)C(F)(F)F)c2)(C(F)(F)F)C(F)(F)F)cc1C(OS(C)(=O)=O)(C(F)(F)F)C(F)(F)F | 135 °C
NC(=O)c1cnn(-c2ncc(C(F)(F)F)cc2Cl)c1NC(=O)C1(F)CC1 | 204 °C
O=C(NCC(COC(C(F)(F)F)(C(F)(F)F)C(F)(F)F)(COC(C(F)(F)F)(C(F)(F)F)C(F)(F)F)C(=O)O)OCC1c2ccccc2-c2ccccc21 | 104 to 105 °C
CCSC(C)CC1CC(=O)C(=C(CC)NOCC=CCl)C(=O)C1 (configuration not stated) | < 25 °C
O=C(O)CN1CCN(CC(=O)O)CCN(CC(=O)Nc2c(I)cc(I)c(C(=O)O)c2I)CCN(CC(=O)O)CC1 | 235 °C
